# From patent US20040147595A1, “Biofilm degrading or sloughing compositions and methods” (priority 2001, published 2004)
# Key:
# elastase = experiment: Virulence factor production: elastase (proteolytic) activity of PAO-JP2 supernatant; type: cell-based, Pseudomonas aeruginosa; conditions: PAO-JP2, 70 nm OdDHL plus 3 μg/ml and 5 μg/ml furanone 56
# Experimental: Measurements of virulence factors. PAO-JP2 was grown in LB medium at 37° C. and shaking at 250 rpm to an OD600 nm of 1.0. The culture was divided into seven subcultures, which were added 0, 70, or 1000 nm OdDHL and 0. 3. or 5 μg/ml furanone 58. The cultures were grown for an additional 4 hours at 37° C. The proteolytic activity was measured as described by Ayora & G{overscore (o)}tz (1994). Azocasein (250 μl 2%, Sigma, St. Louis, Mo.) in 50 mM Tris/HCl and steril-filtered (Ø 0.2 μm) supernatant (150 μl) were incubated for 4 h at […] After precipitation of undigested substrate with trichloroacetic acid (1.2 ml 10%) for 15 minutes, followed by 10 minutes centrifugation at 1000 rpm, NaOH (1.4 ml 1 M) were added to the supernatant. The relative protease activity was measured as the absorbance at 440 nm (OD440 nm) of the supernatant divided by the optical density of the culture (OD600 nm ).
# [1] = tested on: P. aeruginosa protein synthesis; experiment: Constitutive Gfp-expression (pMH306) in PAO1, protein synthesis control; type: cell-based, Pseudomonas aeruginosa; conditions: PAO1 with pMH306, furanone 0 to 10 μ/ml; data not shown
# Experimental: To determine if the furanone compound worked specifically on the las quorum sensor and not indirectly by disruption of primary metabolic functions, we followed growth as optical density of P. aeruginosa PAO1 in the presence of furanone 56. […] Further, we tested whether the furanone affected P. aeruginosa protein synthesis. The wild type P. aeruginosa PAO1 strain containing the consitutive Gfp-expression vector pMH306 was grown in the presence of furanone 56 at concentrations from 0 to 10 μ/ml. Gfp-expression (fluorescence/OD600 nm) was throughout the growth cycle unaffected by the presence of furanone compound (data not shown).
# P. aeruginosa PAO-JP2 = experiment: Growth of P. aeruginosa PAO-JP2; type: cell-based, Pseudomonas aeruginosa; conditions: data not shown
# [2] = tested on: las quorum sensing system (lasB-gfp(ASV) Plac-lasR); experiment: pMHLAS lasB-gfp(ASV) reporter in E. coli MT102; type: cell-based, Escherichia coli; conditions: E. coli MT102 host, data not shown
# Experimental: AHL and furanone bioassay. Strains were grown exponentially in LB or ABt medium supplemented with 0.5% glucose at 30° C., shading at 250 rpm. At an optical density of approximately 0.8. the cultures were diluted and split into subcultures in glass culture flasks. AHLs and furanone 56 were added to appropriate concentrations and the cultures were further incubated at 30° C. under vigorous shaking. Culture samples were retrieved at various time intervals and green fluorescence was measured with a fluorometer (model RF-1501, Shimadzu, Tokyo, Japan) set at an excitation wavelength of 475 nm and emission wavelength of 515 nm. Relative fluorescence was calculated as green fluorescence normalized to 1 ml culture divided by the optical density (OD600 nm.
# Initially, the lasB-gfp(ASV) translational fusion (OdDHL sensor) was thoroughly characterized with respect to its sensitivity and specificity. A culture of E. coli hosting the pMHLAS monitor plasmid was diluted and spilt into several subcultures which were then supplemented with AHLs at concentrations ranging from 0 to 1000 nM. […] When the pMHLAS based reporter system was hosted by PAO-JP2. the OdDHL concentration required for half-maximal activation of the lasB-gfp(ASV) fusion was 8 nM (data not shown). In single copy on the chromosome of PAO-JP2, the OdDHL concentration on required for half-maximal activation of lasB expression was approximately 250 nM (FIG. 2b). Green fluorescent cells were visible by epifluorescence microscopy at a minimal OdDHL concentration of 50 nM (FIG. 2c).
# Effect of the furanone in a heterologous background. The direct regulation exerted by the las regulon on lasB expression is well described by numerous studies (Gambello & Iglewski, 1991: Pearson et al., 1994; Pearson et al., 1997). Regulatory complexity is added by the observation that the las quorum sensing circuit itself is subject to global regulators (Albus et al., 1997; Whiteley et al., 2000) and that lasB expression is also controlled by other regulators than LasR (Brumlik & Storey, 1992; Pesci et al., 1999; Schictman et al., 1995). It was, therefore, important to rule out that QSI effect, observed is not caused by furanone interaction with high levels of control. Since there is no AHL-based quorum sensing system present in Escherichia coli (Williams et al., 2000), this bacterium provides an unbiased and well-defined genetic background for studying the direct effects of the furanone on the P. aeruginosa las quorum sensing system. We repeated the above-described experiments using E. coli MT102 as a heterologous host for the reporter system. […] This is likely to be attributed to the increased copy number of the reporter plasmid.
# chitinase = experiment: Virulence factor production: chitinase activity of PAO-JP2 supernatant; type: cell-based, Pseudomonas aeruginosa; conditions: PAO-JP2, 70 nm OdDHL plus 3 μg/ml and 5 μg/ml furanone 56
# Experimental: The chitinase activity assay was performed as described by the assay manufacturer (Loewe Biochemica, Sauerlach, Germany). Supernatant (560 μl) of cultures prepared as described for the elastase assay was mixed with carboxymethyl-chitin-remazol brilliant violet (200 μl) and sodium phosphate buffer (40 μl, 1 M, pH 7.5). The reaction mixture was incubated for 18 h at 40° C. in a waterbath. The reaction was stopped by addition of HCl (200 μl, 2 N) and kept for 15 min on ice. After centrifugation (10 min at 15000 rpm), the absorbance (OD550 nm) of the supernatant was measured. The relative chitinase activity was calculated as OD550 nm/OD600 nm normalized to 1 ml supernatant.
compound,measurement,setting,value
O=C1C=C/C(=C/Br)O1 [furanone 56],elastase activity,elastase,close to the uninduced level
same,Gfp-expression (fluorescence/OD600 nm) throughout the growth cycle,[1],unaffected
same,effect on growth rate,P. aeruginosa PAO-JP2,no effect on growth rate
same,QSI activity / lasB promoter activity in heterologous E. coli background,[2],repressed lasB promoter activity
same,QSI activity / lasB promoter activity in heterologous E. coli background,[2]; listed as furanone,observed
same,chitinase activity,chitinase,close to the uninduced level
